Measurements as given in patent US4444690A, “Technetium chelates” (priority 1982, dated 1984).
Entries after “also recorded” stand apart in the source; their conditions may differ. Where two headings read alike, the source gives them in different places.

What was measured:
[1] = rats, 90 minutes; for biliary excretion of radioactivity in the absence of renal function: renal pedicles ligated
Description: (§1) Organ biodistribution and acute toxicity studies were carried out in mice, blood disappearance and bile appearance rates were determined by sampling of bood or bile in rats, and renal excretion rates of the two Tc-2,3-bis(mercaptoacetamido)propanoic acid components, Tc-DTPA, and OIH were determined in rabbits because of greater ease of urine sampling. The HPLC-purified Tc-2,3-bis(mercaptoacetamido)propanoate components were used directly except for dilution as necessary. In general HPLC collected volumes were 1 to 1.5 ml and were not diluted for rabbit studies, were diluted 2- to 10-fold for rat studies and were diluted about 20-fold for mouse studies. In most cases determinations were made with simultaneous administration of OIH.
These determinations were made in male Sprague-Dawley rats. For blood studies the animals were anesthetized with sodium pentobarbital, a line was placed in a femoral vein for tracer injections and hydration, and another was placed in a carotid artery for blood sampling. About 20μCi (0.25 ml) each of OIH and Tc-99m complex under study were injected and 0.1 to 0.2 ml samples of blood were taken at 1, 2, 3, 4, 5, 6, 9, 12, 15, 20, 25, 30, 45, 60, 75, and 90 minutes after injection. Biliary excretion in the absence of renal function was determined by cannulating the common bile duct, ligating the renal pedicles, and collecting bile in 4-minute fractions for 90 minutes.

[2] = Blood disappearance rates in rats (FIG. 3); assay type: in vivo, male Sprague-Dawley rats; conditions: rats; for blood disappearance in words: FIG. 3
Source text: These determinations were made in male Sprague-Dawley rats.

[3] = tested on: plasma proteins; test: Plasma protein binding, ultrafiltration; assay type: in vitro ADME
Description: Studies of protein binding were carried out in plasma using an ultrafiltration method described at J.Nucl.Med. 22, 258-263, 1981.

[4] = for renal excretion (urine appearance) in words: rabbits, FIG. 4
Description: as §1
The rate of renal excretion was measured in New Zealand albino male rabbits. They were anesthetized with ketamine and xylazine and placed on a gamma camera provided with digital storage. After injection of 0.5 to 1 mCi of the Tc-99m complex containing 0.5μCi of OIH, images were collected on tape for 45 minutes. At 35 minutes after injection, urine was expelled from the bladder and the percentage of injected dose contained in the expelled urine was determined. Accumulation of bladder radioactivity was monitored by placing a region of interest over the bladder. The drop in the radioactivity in the bladder after expelling the urine sample (50-80% of the bladder radioactivity) allowed calibration of the bladder time-activity curve in terms of percent injected dose.

[5] = tested on: renal tubular transport; conditions: mouse, in vivo
Description: A dose of 50 mg/kg of probenicid was given 10 minutes prior to injection of radiochemicals. OIH was injected simultaneously.
*Values are mean and S.E.M. percent injected dose at 10 min. post

[6] = Organ biodistribution time course of Tc-CO2-DADS components in mice (Table 1); assay type: in vivo, Hal Cr female albino mice; conditions: mice; for Blood / Intestines / Stomach / Urine / Kidneys / Liver: mean of 6; for renal excretion / clearance in words: comparison with OIH or component A
Description: The time course of organ distribution was determined in groups of six Hal Cr female albino mice. They were injected with 0.10 ml (0.5 uCi) of the preparation. For comparison purposes, 0.2 uCi OIH was added to each injection. The mice were placed in metabolic cages for the collection of excreted urine. At indicated intervals after injection, the urethra was ligated and the mice killed with chloroform vapor. The organs were removed and counted in a dual channel counter with correction for I-131 crossover into the Tc-99m channel.

[7] = animals with normal renal function
[8] = 5 min post injection, listed as Tc--CO2 --DADS--A
[9] = 5 min post injection, listed as component A
[10] = 10 min post injection, listed as Tc--CO2 --DADS--A
[11] = 30 min post injection, listed as Tc--CO2 --DADS--A
[12] = 120 min post injection, listed as Tc--CO2 --DADS--A
[13] = 10 min post injection, listed as Tc--CO2 DADS--B
[14] = 120 min post injection, listed as Tc--CO2 DADS--B

**Q.** Which results are given for `O=C(O)C1C[N]2C(=O)C[S][99Tc-]23(=[O])[S]CC(=O)[N]13` (single isomer, unassigned) [Tc-2,3-bis(mercaptoacetamido)propanoate-A] [Tc-99m-2,3-bis(mercaptoacetamido)propanoate]?
**A.** radioactivity in muscle ([1]; absence of renal function): 22%; radioactivity in the blood ([1]; absence of renal function): 21%; radioactivity in the kidneys ([1]; absence of renal function): 1%; radioactivity in the liver ([1]; absence of renal function): 4%; radioactivity in the spleen ([1]; absence of renal function): 0.1%; radioactivity in the stomach ([1]; absence of renal function): 0.3%; biliary excretion of radioactivity in the absence of renal function [1]: less than 3%; biliary excretion of radioactivity in the absence of renal function ([1]; listed as Tc-99m-2,3-bis(mercaptoacetamido)propanoate-A): 3.1%; time at which radioactivity remaining in the blood was 2% [2]: 36 min; time at which radioactivity remaining in the blood was 5% [2]: 16.5 min; blood disappearance in words [2]: higher initial value resulted in comparable curve slopes; blood disappearance in words ([2]; listed as component A): comparable to or slightly greater than that of OIH; protein binding in words [3]: high degree of protein binding; binding to plasma proteins ([3]; 10 min): 93%; binding to plasma proteins ([3]; 0.5 h): 94%; rate of renal excretion in words [4, 7]: equivalent to OIH; specificity for renal excretion [4, 7]: nearly complete; renal excretion (urine appearance) in words [4]: slightly greater extent than OIH although differences were only significant at 35 minutes (p<0.05); renal excretion (urine appearance) in words ([4]; listed as Component A): slightly faster than OIH from 10 minutes onward; biliary excretion with probenicid, in words [5]: not increased significantly; liver radioactivity with probenicid, in words [5]: Biliary excretion was not increased significantly for component A, but liver radioactivity was; Blood ([5]; 10 min): 3.37 percent injected dose; Intestines ([5]; 10 min): 0.77 percent injected dose; Kidneys ([5]; 10 min): 2.53 percent injected dose; Liver ([5]; 10 min): 4.21 percent injected dose; Blood ([6]; 5 min post injection): 8.19 percent injected dose; Intestines ([6]; 5 min post injection): 1.61 percent injected dose; Stomach ([6]; 5 min post injection): 0.24 percent injected dose; Urine ([6]; 5 min post injection, listed as Tc-2,3-bis(mercaptoacetmido)propanoate-A, 5 min): 45 percent injected dose; Kidneys [6, 8]: 5.61 percent injected dose; Liver [6, 8]: 7.81 percent injected dose; Urine ([6]; 5 min post injection, listed as Tc--CO2 --DADS--A, 5 min): 45.52 percent injected dose; Kidneys [6, 9]: 5.6 percent injected dose; Liver [6, 9]: about 8 percent injected dose; Blood [6, 10]: 3.10 percent injected dose; Intestines [6, 10]: 0.82 percent injected dose; Kidneys [6, 10]: 2.23 percent injected dose; Liver [6, 10]: 4.26 percent injected dose; Stomach [6, 10]: 0.11 percent injected dose; Urine ([6]; 10 min post injection, listed as Tc--CO2 --DADS--A, 10 min): 67.97 percent injected dose; Blood ([6]; 15 min post injection): 1.95 percent injected dose; Intestines ([6]; 15 min post injection): 0.86 percent injected dose; Kidneys ([6]; 15 min post injection): 1.30 percent injected dose; Liver ([6]; 15 min post injection): 3.79 percent injected dose; Stomach ([6]; 15 min post injection): 0.09 percent injected dose; Urine ([6]; 15 min post injection): 75.08 percent injected dose; Intestines ([6]; 30 min post injection): 1.05 percent injected dose; Liver ([6]; 30 min post injection): 1.34 percent injected dose; Stomach ([6]; 30 min post injection): 0.07 percent injected dose; Urine ([6]; 30 min post injection): 80.82 percent injected dose; Kidneys ([6]; 30 min post injection, listed as Tc-2,3-bis(mercaptoacetmido)propanoate-A): less than 1 percent injected dose; Blood [6, 11]: 0.59 percent injected dose; Kidneys [6, 11]: 0.51 percent injected dose; Blood ([6]; 30 min post injection, listed as component A): 0.6 percent injected dose; Blood [6, 12]: 0.21 percent injected dose; Intestines [6, 12]: 1.46 percent injected dose; Kidneys [6, 12]: 0.25 percent injected dose; Liver [6, 12]: 0.78 percent injected dose; Stomach [6, 12]: 0.04 percent injected dose; Urine ([6]; 120 min post injection, listed as Tc--CO2 --DADS--A, 120 min): 86.57 percent injected dose; Liver ([6]; 120 min post injection, listed as component A): less than 1 percent injected dose; radioactivity seen in the intestine ([6]; at any time interval): ≤ 1.6%; renal excretion / clearance in words [6]: slightly higher than or comparable to OIH in renal excretion

**Q.** Which “blood disappearance in words” value [2] does the source give for `O=C(O)C1C[N]2C(=O)C[S][99Tc-]23(=[O])[S]CC(=O)[N]13` (single isomer, unassigned) [Tc-2,3-bis(mercaptoacetamido)propanoate-B] [Tc-99m-2,3-bis(mercaptoacetamido)propanoate] here?
**A.** faster than Tc-DTPA, was significantly slower than Tc-2,3-bis(mercaptoacetamido)propanoate-A

**Q.** And the “blood disappearance in words” value ([2]; listed as component B)?
**A.** significantly faster than Tc-DTPA

**Q.** And the “binding to plasma proteins” value ([3]; 10 min)?
**A.** 87%

**Q.** What about the “binding to plasma proteins” value ([3]; 0.5 h) of the same compound?
**A.** 90%

**Q.** And the “renal excretion (urine appearance) in words” value [4]?
**A.** significantly lower at early times, but similar to component A and OIH at 35 minutes

**Q.** What about the “renal excretion (urine appearance) in words” value ([4]; listed as Component B) of the same compound?
**A.** always faster than Tc-DTPA, but significantly slower than OIH or component A at early times

**Q.** And the “biliary excretion in words” value [6]?
**A.** Negligible biliary excretion

**Q.** What about the Blood [6, 13] of the same compound?
**A.** 3.64 percent injected dose

**Q.** And the Intestines [6, 13]?
**A.** 1.00 percent injected dose

**Q.** And the Kidneys [6, 13]?
**A.** 2.87 percent injected dose

**Q.** And the Liver [6, 13]?
**A.** 14.83 percent injected dose

**Q.** And the Stomach [6, 13]?
**A.** 0.13 percent injected dose

**Q.** And the Urine ([6]; 10 min post injection, listed as Tc--CO2 DADS--B, 10 min)?
**A.** 51.94 percent injected dose

**Q.** And the Blood [6, 14]?
**A.** 0.14 percent injected dose

**Q.** What about the Intestines [6, 14] of the same compound?
**A.** 0.21 percent injected dose

**Q.** And the Kidneys [6, 14]?
**A.** 0.14 percent injected dose

**Q.** What about the Liver [6, 14] of the same compound?
**A.** 3.71 percent injected dose

**Q.** What about the Stomach [6, 14] of the same compound?
**A.** 0.02 percent injected dose

**Q.** And the Urine ([6]; 120 min post injection, listed as Tc--CO2 DADS--B, 120 min)?
**A.** 79.16 percent injected dose

**Q.** And the “renal excretion / clearance in words” value ([6]; listed as Tc-2,3-bis(mercaptoacetamido)proponoate-B)?
**A.** more slowly cleared; also recorded: renal excretion was only slightly lower than OIH determined simultaneously
